# Assay results from patent US20240148821A1, “PHARMACEUTICAL USE OF CYCLIC PEPTIDE COMPOUND” (CHUGAI SEIYAKU KABUSHIKI KAISHA, priority 2021, published 2024).
# Bridge positions count the residues as written; N and C are the ends. Square brackets hold non-standard residues; d marks the D form. Peptide text beside a SMILES is read from it. * marks the point of attachment. hPhe(3-Cl-4-CF3) = N[C@@H](CCc1ccc(C(F)(F)F)c(Cl)c1)C(=O)O; hPhe(3-F,4-CF3) = N[C@@H](CCc1ccc(C(F)(F)F)c(F)c1)C(=O)O; hPhe(4-CF3) = N[C@@H](CCc1ccc(C(F)(F)F)cc1)C(=O)O; NMePhe(4-Cl) = CN[C@@H](Cc1ccc(Cl)cc1)C(=O)O; NMeGly(cPent) = CN[C@H](C(=O)O)C1CCCC1; NMeCha = CN[C@@H](CC1CCCCC1)C(=O)O; NMeAhp(2) = CCCCC[C@H](NC)C(=O)O; NMeChg = CN[C@H](C(=O)O)C1CCCCC1; NMeF = CN[C@@H](Cc1ccccc1)C(=O)O; NMeI = CC[C@H](C)[C@H](NC)C(=O)O; NMeD = CN[C@@H](CC(=O)O)C(=O)O; NMeL = CN[C@@H](CC(C)C)C(=O)O; NMeV = CN[C@H](C(=O)O)C(C)C; d(β3hA) = C[C@@H](N)CC(=O)O; Azetidin(1-yl) = C1CN(*)C1; NMeS = CN[C@@H](CO)C(=O)O; Pip = O=C(O)[C@@H]1CCCCN1; Morpholide = C1CN(*)CCO1; NMeA = CN[C@@H](C)C(=O)O; Piperidide = C1CCN(*)CC1; Ac5c = NC1(C(=O)O)CCCC1; Aze = O=C(O)[C@@H]1CCN1; Aib = CC(C)(N)C(=O)O; Sar = CNCC(=O)O; Propyl = CCC*
# Target: protein-protein interaction between Kras and SOS1 (biotin-tagged human Kras loaded with GDP, His-tagged human SOS1) (Homo sapiens (Human), UniProt P01116, G12D)
# Assay: Protein-protein interaction inhibition between Kras and SOS1 (KrasG12D-SOS PPI) using AlphaScreen;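 note: kras produced in E. coli, Ni-coupled donor beads and streptavidin acceptor beads, excitation 680 nm with emission detected at 520–620 nm via singlet oxygen transfer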
# Format: biochemical
# Conditions: AlphaScreen; biotin-tagged human Kras loaded with GDP, His-tagged human SOS1; read-out: KRAS G12D-SOS PPI IC50
row,Compound,IC50
1,CC[C@H](C)[C@@H]1NC(=O)[C@H](C)N(C)C(=O)C[C@@H](C)NC(=O)[C@H](CC(C)C)N(C)C(=O)C(C)(C)NC(=O)[C@H](CC(C)C)N(C)C(=O)[C@H](CCc2ccc(C(F)(F)F)cc2)NC(=O)CN(C)C(=O)[C@H](CC2CCCCC2)N(C)C(=O)CN(C)C(=O)CN(C)C1=O [Compound 219] (cyclo([Aib][NMeL][d(β3hA)][NMeA]I[Sar][Sar][NMeCha][Sar][hPhe(4-CF3)][NMeL])),73 nM
2,CC[C@H](C)[C@@H]1NC(=O)[C@H](C2CCCC2)N(C)C(=O)C[C@@H](C(=O)N2CCCCC2)N(C)C(=O)[C@H](C(C)C)N(C)C(=O)C2(CCCC2)NC(=O)[C@@H]2CCCN2C(=O)[C@H](CCc2ccc(C(F)(F)F)c(Cl)c2)NC(=O)CN(C)C(=O)[C@H](CC2CCCCC2)N(C)C(=O)[C@@H]2CCN2C(=O)[C@H](C)N(C)C1=O [Compound 225] ([NMeGly(cPent)]I[NMeA][Aze][NMeCha][Sar][hPhe(3-Cl-4-CF3)]P[Ac5c][NMeV][NMeD]-Piperidide; lactam N-11),15 nM
3,CC[C@H](C)[C@@H]1NC(=O)[C@@H]2CCCCN2C(=O)C[C@@H](C)NC(=O)[C@H](CC(C)C)N(C)C(=O)C2(CCCC2)NC(=O)[C@@H]2CCCN2C(=O)[C@H](CCc2ccc(C(F)(F)F)cc2)NC(=O)CN(C)C(=O)[C@H](Cc2ccc(Cl)cc2)N(C)C(=O)CN(C)C(=O)CN(C)C1=O [Compound 227] (cyclo([Ac5c][NMeL][d(β3hA)][Pip]I[Sar][Sar][NMePhe(4-Cl)][Sar][hPhe(4-CF3)]P)),82 nM
4,"CCCOC[C@H]1C(=O)N(C)CC(=O)N[C@@H](CCc2ccc(C(F)(F)F)c(F)c2)C(=O)N2CCC[C@H]2C(=O)NC2(CCCC2)C(=O)N(C)[C@@H]([C@@H](C)CC)C(=O)N(C)[C@H](C(=O)N2CCCCC2)CC(=O)N(C)[C@@H](CC(C)C)C(=O)N[C@@H]([C@@H](C)CC)C(=O)N(C)[C@@H](C)C(=O)N2CC[C@H]2C(=O)N1C [Compound 236] ([NMeL]I[NMeA][Aze][NMeS](Propyl)[Sar][hPhe(3-F,4-CF3)]P[Ac5c][NMeI][NMeD]-Piperidide; lactam N-11)",8.5 nM
5,CC[C@H](C)[C@@H]1NC(=O)[C@H](CC(C)C)N(C)C(=O)C[C@@H](C(=O)N2CCCCC2)N(C)C(=O)[C@H](C2CCCCC2)N(C)C(=O)C2(CCCC2)NC(=O)[C@@H]2CCCN2C(=O)[C@H](CCc2ccc(C(F)(F)F)c(Cl)c2)NC(=O)CN(C)C(=O)[C@H](CC2CCCCC2)N(C)C(=O)[C@@H]2CCN2C(=O)[C@H](C)N(C)C1=O [Compound 249] ([NMeL]I[NMeA][Aze][NMeCha][Sar][hPhe(3-Cl-4-CF3)]P[Ac5c][NMeChg][NMeD]-Piperidide; lactam N-11),1.6 nM
6,CC[C@H](C)[C@@H]1NC(=O)[C@H](CC(C)C)N(C)C(=O)C[C@@H](C(=O)N2CCC2)N(C)C(=O)[C@H](C(C)C)N(C)C(=O)C2(CCCC2)NC(=O)[C@@H]2CCCN2C(=O)[C@H](CCc2ccc(C(F)(F)F)c(Cl)c2)NC(=O)CN(C)C(=O)[C@H](CC2CCCCC2)N(C)C(=O)[C@@H]2CCN2C(=O)[C@H](C)N(C)C1=O [Compound 256] ([NMeL]I[NMeA][Aze][NMeCha][Sar][hPhe(3-Cl-4-CF3)]P[Ac5c][NMeV][NMeD]-{Azetidin(1-yl)}; lactam N-11),0.98 nM
7,CC[C@H](C)[C@@H]1NC(=O)[C@H](CC(C)C)N(C)C(=O)C[C@@H](C)NC(=O)[C@H](CC(C)C)N(C)C(=O)C(C)(C)NC(=O)[C@H](CC(C)C)N(C)C(=O)[C@H](CCc2ccc(C(F)(F)F)cc2)NC(=O)CN(C)C(=O)[C@H](Cc2ccc(Cl)cc2)N(C)C(=O)CN(C)C(=O)CN(C)C1=O [Compound 261] (cyclo([Aib][NMeL][d(β3hA)][NMeL]I[Sar][Sar][NMePhe(4-Cl)][Sar][hPhe(4-CF3)][NMeL])),52 nM
8,CCCCC[C@H]1C(=O)N[C@@H]([C@@H](C)CC)C(=O)N[C@@H](C)C(=O)N2CC[C@H]2C(=O)N(C)[C@@H](CC2CCCCC2)C(=O)N(C)CC(=O)N[C@@H](CCc2ccc(C(F)(F)F)c(Cl)c2)C(=O)N2CCC[C@H]2C(=O)NC2(CCCC2)C(=O)N(C)[C@@H](C2CCCC2)C(=O)N(C)[C@H](C(=O)N2CCOCC2)CC(=O)N1C [Compound 263] ([NMeAhp(2)]IA[Aze][NMeCha][Sar][hPhe(3-Cl-4-CF3)]P[Ac5c][NMeGly(cPent)][NMeD]-Morpholide; lactam N-11),2.9 nM
9,CC[C@H](C)[C@@H]1NC(=O)[C@H](C)N(C)C(=O)C[C@@H](C)NC(=O)[C@H](CC(C)C)N(C)C(=O)[C@H](Cc2ccccc2)N(C)C(=O)[C@H](CC(C)C)NC(=O)[C@H](CCc2ccc(C(F)(F)F)cc2)NC(=O)CN(C)C(=O)[C@H](Cc2ccc(Cl)cc2)N(C)C(=O)CN(C)C(=O)CN(C)C1=O [Compound 271] (cyclo(I[Sar][Sar][NMePhe(4-Cl)][Sar][hPhe(4-CF3)]L[NMeF][NMeL][d(β3hA)][NMeA])),65 nM
